{
  "source": "patent US20200268632A1",
  "about": "“ANTI-AGING AGENT AND ANTI-AGING METHOD” (priority 2017, published 2020)",
  "key": {"[1]": {"test_system": "melatonin", "assay": "Evaluation of melatonin secretion promoting effect: melatonin concentration in plasma during 24 weeks of oral ingestion", "type": "in vivo, human", "settings": "for Change rate (24 weeks-0 weeks) of melatonin concentration in the plasma: mean ± SD", "protocol": "In order to confirm a change in the melatonin quantity before and after ingestion of the nicotinamide mononucleotide, a test was conducted on healthy males and females aged 50 to 70 years.\nAs a sample of Working Example 1, a capsule formulation containing the nicotinamide mononucleotide and starch (100 mg (low dose) and 200 mg (high dose) of the nicotinamide mononucleotide in 4 capsules) (manufactured by SHINKOWA PHARMACEUTICAL Co., Ltd.) was used.\n(§1) Each group consisting of five healthy males and females aged 50 to 70 years in an unbiased age group ingested the above low dose capsule formulation once a day by 4 capsules for 24 weeks (total 10 subjects, a low dose group: 100 mg/daily ingestion). On the other hand, each group consisting of five healthy males and females aged 50 to 70 years in the unbiased age group ingested the above high dose capsule formulation once a day by 4 capsules for 24 weeks (total 10 subjects, a high dose group: 200 mg/daily ingestion). In order to conduct appropriate evaluations, those who had been regularly using medical products for chronic diseases, those who had been consuming healthy foods that may affect clinical research, and those who were currently participating in other clinical researches or clinical trials, or had participated in other clinical researches or clinical trials within the last three months were excluded from the subject for the evaluation. The capsule formulations were ingested at 10 am (between meals and fasting state) together with water or lukewarm water (oral administration).\nMeasurement of the melatonin quantity in plasma was conducted by requesting the measurement to an external public organization according to a usual method. FIGS. 2a to 2c indicates transitions of the melatonin concentration (pg/ml) in the plasma for 24 weeks. FIG. 2a represents the transitions of the whole subjects; FIG. 2b represents the transitions of the male subjects; FIG. 2c represents the transitions of the female subjects. FIGS. 3a to 3c indicates change rates (%) of the blood melatonin concentration up to 24 weeks when the nicotinamide mononucleotide was orally administered to the subjects for 24 weeks. FIG. 3a represents the change rates of the whole subjects; FIG. 3b represents the change rates of the male subjects; FIG. 3c represents the change rates of the female subjects. Further, Table 1 indicates the numerical values of the melatonin concentration (pg/ml) in the plasma before the ingestion of the nicotinamide mononucleotide (0 weeks) and after the ingestion of the nicotinamide mononucleotide (24 weeks). In addition, the numerical values represent mean values ±standard deviation."}, "[2]": {"assay": "Safety observation of the subjects during 24 weeks of ingestion (complaints, stool abnormality)", "type": "in vivo, human", "settings": "healthy males and females aged 50 to 70, 100 or 200 mg/daily oral, ingestion for 24 weeks", "protocol": "as §1"}},
  "data": [
    {"smiles": "NC(=O)c1ccc[n+]([C@@H]2O[C@H](COP(=O)([O-])O)[C@@H](O)[C@H]2O)c1", "note": "[nicotinamide mononucleotide]", "values": [
      {"measurement": "Change rate (24 weeks-0 weeks) of melatonin concentration in the plasma", "setting": "[1]; female subjects, high dose group (200 mg/daily, oral)", "value": "6.03 ± 5.90", "unit": "pg/mL"},
      {"measurement": "Change rate (24 weeks-0 weeks) of melatonin concentration in the plasma", "setting": "[1]; female subjects, low dose group (100 mg/daily, oral)", "value": "2.21 ± 3.19", "unit": "pg/mL"},
      {"measurement": "effect of ingestion on melatonin concentrations in plasma (FIGS. 2a-2c, 3a-3c)", "setting": "[1]; healthy males and females aged 50 to 70, 100 or 200 mg/daily oral, up to 24 weeks", "value": "increased the melatonin concentrations in plasma at the high change rates"},
      {"measurement": "Change rate (24 weeks-0 weeks) of melatonin concentration in the plasma", "setting": "[1]; male subjects, high dose group (200 mg/daily, oral)", "value": "2.86 ± 3.10", "unit": "pg/mL"},
      {"measurement": "Change rate (24 weeks-0 weeks) of melatonin concentration in the plasma", "setting": "[1]; male subjects, low dose group (100 mg/daily, oral)", "value": "3.44 ± 3.57", "unit": "pg/mL"},
      {"measurement": "melatonin concentration in the plasma after ingestion compared to before ingestion, statistical significance", "setting": "[1]; whole subjects, both the low dose group and the high dose group, 24 weeks, p<0.05", "value": "a significant difference was observed"},
      {"measurement": "Change rate (24 weeks-0 weeks) of melatonin concentration in the plasma", "setting": "[1]; whole subjects, high dose group (200 mg/daily, oral)", "value": "4.45 ± 4.75", "unit": "pg/mL"},
      {"measurement": "Change rate (24 weeks-0 weeks) of melatonin concentration in the plasma", "setting": "[1]; whole subjects, low dose group (100 mg/daily, oral)", "value": "2.82 ± 3.26", "unit": "pg/mL"},
      {"measurement": "unidentified complaints (abdominal pain, nausea, vomiting, headache) or stool abnormality", "setting": "[2]", "value": "did not show any unidentified complaint"}
    ]}
  ]
}
